# Measurements: publication PMC12032945, “Estrogenic activity of E2-conjugated GLP-1 is mediated by intracellular endolysosomal acidification and estrone metabolism” (Molecular Metabolism, 2025)
# Experiments:
# [1] = test system: G-protein coupled estrogen receptor 1 (GPER1); test: cAMP production in GPER1+ HEK293T cells; type: cell-based
# ERα and SP-1 = test: Proximity ligation assay (PLA) ERα / SP-1; type: cell-based, human (hERα) in HEK293T cells; conditions: 1 μM; HEK293T overexpressing hGLP-1R and ERα
# GLP-1R+ HEK293T cells = test: estrone-3-sulfate ELISA in cell lysate; type: cell-based; conditions: 1 μM, 2 h
# ERα = target: T1, ERα (Homo sapiens, UniProt P03372); test: Estrogen response element (ERE) luciferase reporter; type: cell-based, human (hERα) in HEK293T cells; conditions: bafilomycinA1 (5 μM) or EN6 (50 μM) with E2 or E2-3-ether; 24 h
# T1 sequence (P03372 1-595): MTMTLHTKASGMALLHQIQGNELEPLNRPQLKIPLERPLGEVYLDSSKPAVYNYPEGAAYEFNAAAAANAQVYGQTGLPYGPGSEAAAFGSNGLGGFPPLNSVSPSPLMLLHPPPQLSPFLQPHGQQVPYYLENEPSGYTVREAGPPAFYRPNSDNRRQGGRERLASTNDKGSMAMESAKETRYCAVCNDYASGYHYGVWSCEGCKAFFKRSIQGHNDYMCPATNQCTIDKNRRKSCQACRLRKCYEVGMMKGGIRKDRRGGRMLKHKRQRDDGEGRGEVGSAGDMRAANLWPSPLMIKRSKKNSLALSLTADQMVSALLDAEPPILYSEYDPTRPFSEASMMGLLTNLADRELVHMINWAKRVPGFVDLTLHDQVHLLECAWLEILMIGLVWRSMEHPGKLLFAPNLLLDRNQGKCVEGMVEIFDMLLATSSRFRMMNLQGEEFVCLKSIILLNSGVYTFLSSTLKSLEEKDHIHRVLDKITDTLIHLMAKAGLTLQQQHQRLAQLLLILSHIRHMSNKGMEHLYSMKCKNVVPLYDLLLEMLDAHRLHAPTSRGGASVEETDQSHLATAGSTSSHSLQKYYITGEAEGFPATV
# [2] = test system: GLP-1R / Rab5+ early endosomes; test: GLP-1R colocalization with Rab5+ early endosomes, BRET; conditions: with GLP-1 (7-36)amide (1 μM)
# hGLP-1R [3] = target: T2, hGLP-1R (Homo sapiens, UniProt P43220); test: Nluc-mGαs recruitment to GLP-1R-GFP, BRET; type: cell-based, human (hGLP-1R) in HEK293T cells
# hGLP-1R [4] = target: T2, hGLP-1R; test: cAMP production, CAMYEL BRET; type: cell-based, human (hGLP-1R) in HEK293T cells
# hGLP-1R [5] = target: T2, hGLP-1R; test: Nluc-mGαq recruitment to GLP-1R-GFP, BRET; type: cell-based, human (hGLP-1R) in HEK293T cells
# hGLP-1R [6] = target: T2, hGLP-1R; test: GLP-1R-Rluc8 internalization away from GFP-CAAX, BRET; type: cell-based, human (hGLP-1R) in HEK293T cells
# hGLP-1R [7] = target: T2, hGLP-1R; test: β-arrestin-2-Rluc8 recruitment to GLP-1R-GFP, BRET; type: cell-based, human (hGLP-1R) in HEK293T cells
# hGLP-1R [8] = target: T2, hGLP-1R; test: Nluc-mGαs recruitment to GLP-1R, BRET, MIN6; type: cell-based, human (hGLP-1R) in mouse MIN6 cells
# hGLP-1R [9] = target: T2, hGLP-1R; test: cAMP production, BRET, MIN6; type: cell-based, human (hGLP-1R) in mouse MIN6 cells
# hGLP-1R [10] = target: T2, hGLP-1R; test: Nluc-mGαq recruitment to GLP-1R, BRET, MIN6; type: cell-based, human (hGLP-1R) in mouse MIN6 cells
# hGLP-1R [11] = target: T2, hGLP-1R; test: GLP-1R-Rluc8 internalization, BRET, MIN6; type: cell-based, human (hGLP-1R) in mouse MIN6 cells
# hGLP-1R [12] = target: T2, hGLP-1R; test: β-arrestin-2-Rluc8 recruitment, BRET, MIN6; type: cell-based, human (hGLP-1R) in mouse MIN6 cells
# hGLP-1R [13] = target: T2, hGLP-1R; test: Nluc-mGαs recruitment to GLP-1R, BRET, CLU177; type: cell-based, human (hGLP-1R) in mouse CLU177 cells
# hGLP-1R [14] = target: T2, hGLP-1R; test: cAMP production, BRET, CLU177; type: cell-based, human (hGLP-1R) in mouse CLU177 cells
# hGLP-1R [15] = target: T2, hGLP-1R; test: GLP-1R-Rluc8 internalization, BRET, CLU177; type: cell-based, human (hGLP-1R) in mouse CLU177 cells
# hGLP-1R [16] = target: T2, hGLP-1R; test: β-arrestin-2-Rluc8 recruitment, BRET, CLU177; type: cell-based, human (hGLP-1R) in mouse CLU177 cells
# T2 sequence (P43220 24-463): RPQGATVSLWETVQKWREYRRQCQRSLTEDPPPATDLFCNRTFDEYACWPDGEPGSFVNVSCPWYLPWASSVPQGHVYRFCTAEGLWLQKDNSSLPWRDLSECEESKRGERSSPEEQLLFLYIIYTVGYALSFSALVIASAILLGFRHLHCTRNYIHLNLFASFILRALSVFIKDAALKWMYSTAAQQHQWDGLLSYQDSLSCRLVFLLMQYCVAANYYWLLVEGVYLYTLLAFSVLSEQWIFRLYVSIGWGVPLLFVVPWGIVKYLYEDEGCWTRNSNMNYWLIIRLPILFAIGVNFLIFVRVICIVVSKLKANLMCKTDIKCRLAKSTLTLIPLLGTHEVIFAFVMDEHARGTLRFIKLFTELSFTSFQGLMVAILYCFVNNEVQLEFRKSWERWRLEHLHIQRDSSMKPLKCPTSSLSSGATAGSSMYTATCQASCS
smiles,measurement,setting,value
"C[C@]12CC[C@@H]3c4ccc(O)cc4CC[C@H]3[C@@H]1CC[C@@H]2O [E2, 17β-estradiol]",cAMP production via GPER1,[1],did not observe E2-or G1-driven cAMP production
same,PLA: proximal localization of ERα and SP-1,ERα and SP-1,significantly increase the proximal localization of ERα and the nucleus-localized transcription factor specificity protein-1 (SP-1) relative to GLP-1 (7-36)amide
"C[C@]12CC[C@@H]3c4ccc(OCC(=O)O)cc4CC[C@H]3[C@@H]1CC[C@@H]2O [E2-3-ether, estradiol 3-carboxymethyl ether]",estrone-3-sulfate levels,GLP-1R+ HEK293T cells,significantly increased estrone-3-sulfate levels
C=CC(=O)Nc1cc(NC(=O)c2cnn(-c3ccccc3F)c2)ccc1F [EN6],off-target effect on stimulated ERα activation,ERα,did not have off-target effects on stimulated ERα activation by E2 or E2-3-ether
same,endosomal trafficking dynamics on EN6 treatment,[2]; 50 μM,without altering endosomal trafficking dynamics
CC(=O)c1ccc2c(c1)C1C=CCC1C(c1cc3c(cc1Br)OCO3)N2 (centres unmarked) [G1],cAMP production via GPER1,[1],did not observe E2-or G1-driven cAMP production
CC[C@H](C)[C@H](NC(=O)[C@H](Cc1ccccc1)NC(=O)[C@H](CCC(=O)O)NC(=O)[C@H](CCCCN)NC(=O)[C@H](C)NC(=O)[C@H](C)NC(=O)[C@H](CCC(N)=O)NC(=O)[C@H](CCC(=O)O)NC(=O)[C@H](CCC(=O)O)NC(=O)[C@H](CC(C)C)NC(=O)[C@H](Cc1ccc(O)cc1)NC(=O)[C@H](CO)NC(=O)[C@H](CO)NC(=O)[C@@H](NC(=O)[C@H](CC(=O)O)NC(=O)[C@H](CO)NC(=O)[C@@H](NC(=O)[C@H](Cc1ccccc1)NC(=O)[C@@H](NC(=O)CNC(=O)[C@H](CCC(=O)O)NC(=O)C(C)(C)NC(=O)[C@@H](N)Cc1c[nH]cn1)[C@@H](C)O)[C@@H](C)O)C(C)C)C(=O)N[C@@H](C)C(=O)N[C@@H](Cc1c[nH]c2ccccc12)C(=O)N[C@@H](CC(C)C)C(=O)N[C@H](C(=O)N[C@@H](CCCCN)C(=O)NCC(=O)NCC(=O)N1CCC[C@H]1C(=O)N[C@@H](CO)C(=O)N[C@@H](CO)C(=O)NCC(=O)N[C@@H](C)C(=O)N1CCC[C@H]1C(=O)N1CCC[C@H]1C(=O)N1CCC[C@H]1C(=O)N[C@@H](CO)C(=O)N[C@@H](CCCCNC(=O)COc1ccc2c(c1)CC[C@@H]1[C@@H]2CC[C@]2(C)[C@@H](O)CC[C@@H]12)C(N)=O)C(C)C [GLP-1-CEX/E2],EC50,hGLP-1R [3],44.6 nM
same,Emax,hGLP-1R [3]; HEK-293T,94.2 ± 5.2%
same,EC50,hGLP-1R [4],16.8 nM
same,Emax,hGLP-1R [4]; HEK-293T,111 ± 5.3%
same,EC50,hGLP-1R [5],47.8 nM
same,Emax,hGLP-1R [5]; HEK-293T,94 ± 9%
same,EC50,hGLP-1R [6],5.01 nM
same,Emax,hGLP-1R [6]; HEK-293T,90.9 ± 1.5%
same,EC50,hGLP-1R [7],29.5 nM
same,Emax,hGLP-1R [7]; HEK-293T,100 ± 2.6%
same,EC50,hGLP-1R [8],143 nM
same,Emax,hGLP-1R [8]; MIN6,95.4 ± 7.7%
same,EC50,hGLP-1R [9],0.963 nM
same,Emax,hGLP-1R [9]; MIN6,99.1 ± 4%
same,EC50,hGLP-1R [10],245 nM
same,Emax,hGLP-1R [10]; MIN6,76.7 ± 12.2%
same,EC50,hGLP-1R [11],158 nM
same,Emax,hGLP-1R [11]; MIN6,98.6 ± 9.3%
same,EC50,hGLP-1R [12],39.2 nM
same,Emax,hGLP-1R [12]; MIN6,99 ± 4.9%
same,EC50,hGLP-1R [13],62.2 nM
same,Emax,hGLP-1R [13],103 ± 5.7%
same,EC50,hGLP-1R [14],0.0316 nM
same,Emax,hGLP-1R [14],106 ± 6.2%
same,EC50,hGLP-1R [15],142 nM
same,Emax,hGLP-1R [15],97.4 ± 14.8%
same,EC50,hGLP-1R [16],162 nM
same,Emax,hGLP-1R [16],95.9 ± 4.1%
CO/C1=C\C(C)=C\[C@@H](C)[C@@H](O)[C@@H](C)C/C(C)=C/C=C/[C@H](OC)[C@@H]([C@@H](C)[C@@H](O)[C@H](C)[C@@]2(O)C[C@@H](O)[C@H](C)[C@@H](C(C)C)O2)OC1=O [bafilomycinA1],GLP-1R internalization on bafilomycinA1 pre/co-treatment,"hGLP-1R [6]; 5 μM, with GLP-1 (7-36)amide (1 μM)",without affecting receptor internalization
same,off-target effect on stimulated ERα activation,ERα,did not have off-target effects on stimulated ERα activation by E2 or E2-3-ether
same,GLP-1R retention in Rab5+ early endosomes on bafilomycinA1 pre/co-treatment,[2]; 5 μM,significantly increases GLP-1R retention in Rab5^+ early endosomes
"C=C[C@@]1(C)CC(=O)[C@]2(O)[C@@]3(C)[C@@H](O)CCC(C)(C)[C@@H]3[C@H](O)[C@H](OC(C)=O)[C@@]2(C)O1 [forskolin, reference compound]",saturation of the cAMP sensor,"hGLP-1R [4]; forskolin 50 μM, hGLP-1R+ HEK293T",Saturation of the cAMP sensor was not achieved
